The values that follow are results of earlier work, collected in patent publication US10610500B2, “Chemosensory receptor ligand-based therapies” (Anji Pharma (US) LLC, priority 2011, dated 2020).

The target of this series is T1, sweet receptor (Homo sapiens, UniProt Q7RTX0+Q8TE23).
T1 sequence (Q8TE23 20-839): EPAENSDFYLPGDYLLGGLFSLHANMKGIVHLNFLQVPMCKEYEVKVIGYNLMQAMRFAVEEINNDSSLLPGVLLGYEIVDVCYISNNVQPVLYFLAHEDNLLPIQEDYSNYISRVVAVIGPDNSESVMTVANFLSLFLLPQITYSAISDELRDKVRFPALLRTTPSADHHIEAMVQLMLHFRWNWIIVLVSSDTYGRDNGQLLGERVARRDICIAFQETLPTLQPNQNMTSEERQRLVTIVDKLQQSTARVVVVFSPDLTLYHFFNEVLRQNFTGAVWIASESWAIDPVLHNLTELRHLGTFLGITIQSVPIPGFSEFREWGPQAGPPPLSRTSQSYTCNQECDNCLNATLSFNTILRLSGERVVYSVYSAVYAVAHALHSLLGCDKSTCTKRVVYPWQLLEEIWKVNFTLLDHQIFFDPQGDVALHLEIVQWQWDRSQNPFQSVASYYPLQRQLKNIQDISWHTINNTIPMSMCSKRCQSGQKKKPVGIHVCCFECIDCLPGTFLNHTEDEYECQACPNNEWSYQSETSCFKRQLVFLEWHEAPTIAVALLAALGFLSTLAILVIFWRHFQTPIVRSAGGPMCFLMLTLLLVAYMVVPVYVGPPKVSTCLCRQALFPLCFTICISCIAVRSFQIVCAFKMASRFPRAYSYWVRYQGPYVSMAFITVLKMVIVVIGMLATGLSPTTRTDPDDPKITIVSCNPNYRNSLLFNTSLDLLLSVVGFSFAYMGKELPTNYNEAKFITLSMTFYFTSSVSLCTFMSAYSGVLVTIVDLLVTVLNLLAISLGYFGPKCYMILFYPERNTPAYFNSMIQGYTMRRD
T1 sequence (Q7RTX0 21-852): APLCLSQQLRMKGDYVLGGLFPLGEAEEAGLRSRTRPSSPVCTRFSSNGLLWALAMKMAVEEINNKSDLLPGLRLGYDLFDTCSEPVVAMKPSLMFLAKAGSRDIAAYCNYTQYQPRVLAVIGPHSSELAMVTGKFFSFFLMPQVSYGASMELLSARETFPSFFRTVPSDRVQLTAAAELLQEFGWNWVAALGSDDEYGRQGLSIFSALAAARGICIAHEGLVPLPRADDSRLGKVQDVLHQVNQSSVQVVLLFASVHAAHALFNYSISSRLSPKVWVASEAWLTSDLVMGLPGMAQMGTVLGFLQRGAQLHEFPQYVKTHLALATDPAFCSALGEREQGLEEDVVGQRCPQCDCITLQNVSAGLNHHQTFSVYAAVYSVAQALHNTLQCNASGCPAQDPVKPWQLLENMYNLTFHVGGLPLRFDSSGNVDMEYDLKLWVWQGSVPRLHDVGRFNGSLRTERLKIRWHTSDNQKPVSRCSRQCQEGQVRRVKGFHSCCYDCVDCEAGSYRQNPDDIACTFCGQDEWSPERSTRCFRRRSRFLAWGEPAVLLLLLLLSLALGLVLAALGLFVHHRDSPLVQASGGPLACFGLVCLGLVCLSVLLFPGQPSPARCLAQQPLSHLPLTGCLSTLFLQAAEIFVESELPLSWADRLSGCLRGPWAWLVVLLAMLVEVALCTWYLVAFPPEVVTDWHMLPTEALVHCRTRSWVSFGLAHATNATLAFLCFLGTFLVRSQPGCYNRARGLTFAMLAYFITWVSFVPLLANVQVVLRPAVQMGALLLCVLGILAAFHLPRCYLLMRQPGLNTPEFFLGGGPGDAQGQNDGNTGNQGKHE
The conditions noted are these: relative sweetness on a weight comparison basis to sucrose (=1.0); ranges: relative sweetness varied with the concentration of sucrose.
For `COc1c(O)cc2c(c1O)C(=O)[C@H](OC(C)=O)[C@@H](c1ccc(O)cc1)O2` [(2R,3R)-2,3-Dihydro-5,7,4'-trihydroxy-6-methoxy-3-O-acetylflavonol], the Sweetness/potency was 20.
`C/C(=C\CC/C(C)=C/CO[C@@H]1O[C@H](CO)[C@@H](O)[C@H](O[C@@H]2O[C@@H](C)[C@H](O)[C@@H](O)[C@H]2O)[C@H]1O[C@@H]1O[C@@H](C)[C@H](O)[C@@H](O)[C@H]1O)CC/C=C(\C)CO[C@@H]1O[C@H](CO)[C@@H](O)[C@H](O[C@@H]2O[C@@H](C)[C@H](O)[C@@H](O)[C@H]2O)[C@H]1O[C@@H]1O[C@@H](C)[C@H](O)[C@@H](O)[C@H]1O` [Mukurozioside IIb]: the Sweetness/potency entry is “ca. 1”.
In the case of `C=C1C[C@@]23CC[C@H]4[C@@](C)(CCC[C@@]4(C)C(=O)O[C@@H]4O[C@H](CO)[C@@H](O)[C@H](O)[C@H]4O)[C@@H]2CC[C@]1(O[C@@H]1O[C@H](CO)[C@@H](O)[C@H](O)[C@H]1O[C@@H]1O[C@H](CO)[C@@H](O)[C@H](O)[C@H]1O)C3` [Stevioside], the Sweetness/potency is on record as 210.
In the case of `C=C1C[C@@]23CC[C@H]4[C@@](C)(CCC[C@@]4(C)C(=O)O[C@@H]4O[C@H](CO)[C@@H](O)[C@H](O)[C@H]4O)[C@@H]2CC[C@]1(O[C@@H]1O[C@H](CO)[C@@H](O)[C@H](O)[C@H]1O[C@@H]1O[C@@H](C)[C@H](O)[C@@H](O)[C@H]1O)C3` [Dulcoside A], the Sweetness/potency was 30.
As to `CC1(C)C[C@H]2C3=CC[C@@H]4[C@@]5(C)CC[C@H](O[C@@H]6O[C@H](CO[C@@H]7OC[C@H](O)[C@H](O)[C@H]7O[C@@H]7OC[C@@H](O)[C@H](O)[C@H]7O)[C@@H](O)[C@H](O)[C@H]6O)C(C)(C)[C@@H]5CC[C@@]4(C)[C@]3(C)C[C@@H](O)[C@@]23C[C@@H]1OC3=O` [Albiziasaponin A], the Sweetness/potency is given as 5.
For `CC1=CC[C@@H]([C@@H](C)[C@H]2CC[C@@]3(C)[C@@H]4CC[C@H]5[C@](C)(C(=O)O)[C@@H](O[C@@H]6O[C@H](CO)[C@@H](O)[C@H](O)[C@H]6O)CC[C@@]56C[C@@]46CC[C@]23C)OC1=O` [Abrusoside A], the Sweetness/potency is recorded as 30.
Regarding Albiziasaponin B, the Sweetness/potency is reported as 600.
As for Periandrin II, the Sweetness/potency is listed as 95.
With `CC1(C)[C@@H](O[C@@H]2O[C@H](C(=O)O)[C@@H](O)[C@H](O)[C@H]2O[C@@H]2O[C@H](C(=O)O)[C@@H](O)[C@H](O)[C@H]2O)CC[C@]2(C=O)[C@H]3CC[C@@H]4C5=C[C@@](C)(C(=O)O)CC[C@]5(C)CC[C@@]4(C)[C@]3(C)CC[C@@H]12` [Periandrin I], the Sweetness/potency is 90.
Regarding Polypodoside A, the Sweetness/potency was 600.
With `C[C@@H]1O[C@@H](O[C@H]2O[C@@H]([C@@H](C)C3CC[C@@H]4[C@H]5CC(=O)[C@@H]6C[C@H](O[C@@H]7O[C@H](CO)[C@@H](O)[C@H](O)[C@H]7O[C@@H]7O[C@@H](C)[C@H](O)[C@@H](O)[C@H]7O)CC[C@]6(C)[C@@H]5CC[C@]34C)CC[C@@H]2C)[C@H](O)[C@H](O)[C@H]1O` (some centres unmarked) [Osladin], the Sweetness/potency was 500.
For `O=C/C=C/c1ccccc1` [Trans-Cinnamaldehyde], the Sweetness/potency was 50.
Turning to Rebaudioside B, the Sweetness/potency is reported as 150.
In the case of `CC1(C(=O)O)C=C2C3CCC4C5(CO)CCC(OC6OC(C(=O)O)C(O)C(O)C6OC6OC(C(=O)O)C(O)C(O)C6O)C(C)(C)C5CCC4(C)C3(C)CCC2(C)CC1` (centres unmarked) [Periandrin III], the Sweetness/potency is given as 92.
As to Cyclocarioside A, the Sweetness/potency was 200.
As to `CC1=CC[C@@H]([C@@H](C)[C@H]2CC[C@@]3(C)[C@@H]4CC[C@H]5[C@](C)(C(=O)O)[C@@H](O[C@@H]6O[C@H](CO)[C@@H](O)[C@H](O)[C@H]6O[C@@H]6O[C@H](C(=O)O)[C@@H](O)[C@H](O)[C@H]6O)CC[C@@]56C[C@@]46CC[C@]23C)OC1=O` [Abrusoside D], the Sweetness/potency was 75.
Turning to Scandenoside R6, the Sweetness/potency is 54.
